Experimental data taken from ChEMBL document CHEMBL5365426, “Modification of N-hydroxycytidine yields a novel lead compound exhibiting activity against the Venezuelan equine encephalitis virus” (Bioorg Med Chem Lett, 2023).

Experiments:
[1] = system: Venezuelan equine encephalitis virus; test: Antiviral activity against Venezuelan equine encephalitis virus infected in human MRC5 cells assessed as inhibition of viral infection at 100 uM relative to control; type: functional
[2] = system: Venezuelan equine encephalitis virus; test: Antiviral activity against Venezuelan equine encephalitis virus infected in human MRC5 cells assessed as virus induced cell death at 100 uM relative to control; type: functional
[3] = Cytotoxicity against human MRC-5 cells assessed as reduction in cell viability; type: toxicity, cell-based, MRC5
[4] = system: Venezuelan equine encephalitis virus; test: Antiviral activity against Venezuelan equine encephalitis virus infected in human MRC5 cells assessed as inhibition of virus induced cytopathic effect; type: functional, organism-based
[5] = Safety index, ratio of CC50 for cytotoxicity against human MRC-5 cells to EC50 for antiviral activity against Venezuelan equine encephalitis virus infected in human MRC5 cells; type: toxicity, cell-based; details: read-out: Ratio CC50/EC50

Row | SMILES | inhibition at 100 µM [1] [%] | Activity [2] [%] | CC50 [3] [µM] | EC50 [4] [µM] | selectivity ratio [5]
1 | O=c1[nH]cc(CO)c(=O)[nH]1 | 16.8 | 7.97 |  |  | 
2 | O=c1[nH]cc(COCc2ccccc2)c(=O)[nH]1 | 9.66 | 0.22 |  |  | 
3 | O=c1[nH]c(=O)n([C@@H]2O[C@H](CO)[C@@H](O)[C@H]2O)cc1COCc1ccccc1Cl | 30.9 | 12.17 |  |  | 
4 | CC(C)(C)C(OCc1cn([C@@H]2O[C@H](CO)[C@@H](O)[C@H]2O)c(=O)[nH]/c1=N\O)c1ccccc1Cl (stereo partly specified) | 95.3 | 30.28 | 135 | 37.6 | 3.59
5 | CC(C)C(OCc1cn([C@@H]2O[C@H](CO)[C@@H](O)[C@H]2O)c(=O)[nH]c1=O)c1ccccc1 (stereo partly specified) | 29 | 9.09 |  |  | 
6 | Cc1ccccc1C(OCc1cn([C@@H]2O[C@H](CO)[C@@H](O)[C@H]2O)c(=O)[nH]/c1=N\O)C(C)(C)C (stereo partly specified) | 24.4 | 18.59 |  |  | 
7 | CC(C)(C)C(OCc1cn([C@@H]2O[C@H](CO)[C@@H](O)[C@H]2O)c(=O)[nH]c1=O)c1ccccc1 (stereo partly specified) | 16.6 | 17.18 |  |  | 
8 | CCC(OCc1c[nH]c(=O)[nH]c1=O)c1ccccc1 (stereo unspecified) | 24.8 | 6.21 |  |  | 
9 | CC(C)(C)C(OCc1cn([C@@H]2O[C@H](CO)[C@@H](O)[C@H]2O)c(=O)[nH]c1=N)c1ccccc1Cl (stereo partly specified) | 29.3 | 18.8 |  |  | 
10 | CC(C)C(OCc1cn([C@@H]2O[C@H](CO)[C@@H](O)[C@H]2O)c(=O)[nH]c1=N)c1ccccc1 (stereo partly specified) | 28.2 | 7.99 |  |  | 
11 | N=c1[nH]c(=O)n([C@@H]2O[C@H](CO)[C@@H](O)[C@H]2O)cc1COC(c1ccccc1)C1CCCCC1 (stereo partly specified) | 24.9 | 17.83 |  |  | 
12 | N=c1[nH]c(=O)n([C@@H]2O[C@H](CO)[C@@H](O)[C@H]2O)cc1COCc1ccccc1Cl | 29 | 10.11 |  |  | 
13 | CC(OCc1cn([C@@H]2O[C@H](CO)[C@@H](O)[C@H]2O)c(=O)[nH]/c1=N\O)c1ccccc1 (stereo partly specified) | 10.5 | 5.54 |  |  | 
14 | Cc1ccccc1C(OCc1cn([C@@H]2O[C@H](CO)[C@@H](O)[C@H]2O)c(=O)[nH]c1=O)C(C)(C)C (stereo partly specified) | 34 | 27.83 |  |  | 
15 | CC(OCc1cn([C@@H]2O[C@H](CO)[C@@H](O)[C@H]2O)c(=O)[nH]c1=N)c1ccccc1 (stereo partly specified) | 31 | 11.51 |  |  | 
16 | CC(C)C(OCc1c[nH]c(=O)[nH]c1=O)c1ccccc1 (stereo unspecified) | 5.87 | 7.76 |  |  | 
17 | CCC(OCc1cn([C@@H]2O[C@H](CO)[C@@H](O)[C@H]2O)c(=O)[nH]/c1=N\O)c1ccccc1 (stereo partly specified) | 10.5 | 4.87 |  |  | 
18 | N=c1[nH]c(=O)n([C@@H]2O[C@H](CO)[C@@H](O)[C@H]2O)cc1COCc1ccccc1 | 24.9 | 18.86 |  |  | 
19 | CC(C)C(OCc1cn([C@@H]2O[C@H](CO)[C@@H](O)[C@H]2O)c(=O)[nH]/c1=N\O)c1ccccc1 (stereo partly specified) | 16.5 | 9.54 |  |  | 
20 | CC(C)(C)C(OCc1c[nH]c(=O)[nH]c1=O)c1ccccc1 (stereo unspecified) | 11.7 | 4.02 |  |  | 
21 | O=c1[nH]/c(=N\O)c(COC(c2ccccc2)C2CCCCC2)cn1[C@@H]1O[C@H](CO)[C@@H](O)[C@H]1O (stereo partly specified) | 35.5 | 25.09 |  |  | 
22 | Cc1ccccc1C(OCc1c[nH]c(=O)[nH]c1=O)C(C)(C)C (stereo unspecified) | 21.4 | 3.54 |  |  | 
23 | O=c1[nH]c(=O)n([C@@H]2O[C@H](CO)[C@@H](O)[C@H]2O)cc1COCc1ccccc1 | 25.5 | 22.88 |  |  | 

Row | SMILES | inhibition at 100 µM [1] [%] | Activity [2] [%] | CC50 [3] [µM] | EC50 [4] [µM] | selectivity ratio [5]
24 | O=c1[nH]/c(=N\O)c(COCc2ccccc2)cn1[C@@H]1O[C@H](CO)[C@@H](O)[C@H]1O | 12.4 | 16.09 |  |  | 
25 | O=c1[nH]/c(=N\O)c(CO)cn1[C@@H]1O[C@H](CO)[C@@H](O)[C@H]1O | 5.24 | 4.99 |  |  | 
26 | O=c1[nH]cc(COC(c2ccccc2)C2CCCCC2)c(=O)[nH]1 (stereo unspecified) | 10.5 | 8.05 |  |  | 
27 | CC(C)(C)C(OCc1cn([C@@H]2O[C@H](CO)[C@@H](O)[C@H]2O)c(=O)[nH]/c1=N\O)c1ccccc1 (stereo partly specified) | 30.3 | 20.09 |  |  | 
28 | CCC(OCc1cn([C@H]2O[C@H](CO)[C@@H](O)[C@H]2O)c(=O)[nH]c1=O)c1ccccc1 (stereo partly specified) | 26.3 | 20.81 |  |  | 
29 | CC(C)(C)C(OCc1c[nH]c(=O)[nH]c1=O)c1ccccc1Cl (stereo unspecified) | 11.6 | 4.74 |  |  | 
30 | O=c1[nH]c(=O)n([C@H]2O[C@H](CO)[C@@H](O)[C@H]2O)cc1COCc1ccccc1 | 23 | 11.03 |  |  | 
31 | N=c1[nH]c(=O)n([C@@H]2O[C@H](CO)[C@@H](O)[C@H]2O)cc1CO | 12.2 | 29.79 |  |  | 
32 | CC(OCc1c[nH]c(=O)[nH]c1=O)c1ccccc1 (stereo unspecified) | 10.1 | 11.63 |  |  | 
33 | CC(OCc1cn([C@@H]2O[C@H](CO)[C@@H](O)[C@H]2O)c(=O)[nH]c1=O)c1ccccc1 (stereo partly specified) | 16.8 | 5.05 |  |  | 
34 | O=c1[nH]c(=O)n([C@H]2O[C@H](CO)[C@@H](O)[C@H]2O)cc1COCc1ccccc1Cl | 18.8 | 12.73 |  |  | 
35 | O=c1[nH]cc(COCc2ccccc2Cl)c(=O)[nH]1 | 12.9 | 9.35 |  |  | 
36 | CCC(OCc1cn([C@@H]2O[C@H](CO)[C@@H](O)[C@H]2O)c(=O)[nH]c1=N)c1ccccc1 (stereo partly specified) | 14.3 | 8.31 |  |  | 
37 | O=c1[nH]c(=O)n([C@@H]2O[C@H](CO)[C@@H](O)[C@H]2O)cc1CO | 17.4 | 11.71 |  |  | 
38 | Cc1ccccc1C(OCc1cn([C@@H]2O[C@H](CO)[C@@H](O)[C@H]2O)c(=O)[nH]c1=N)C(C)(C)C (stereo partly specified) | 34.4 | 22.95 |  |  | 
39 | O=c1[nH]/c(=N\O)c(COCc2ccccc2Cl)cn1[C@@H]1O[C@H](CO)[C@@H](O)[C@H]1O | 41.1 | 6.38 |  |  | 
40 | CC(C)C(OCc1cn([C@H]2O[C@H](CO)[C@@H](O)[C@H]2O)c(=O)[nH]c1=O)c1ccccc1 (stereo partly specified) | 20.5 | 17.19 |  |  | 
41 | CC(C)(C)C(OCc1cn([C@@H]2O[C@H](CO)[C@@H](O)[C@H]2O)c(=O)[nH]c1=N)c1ccccc1 (stereo partly specified) | 13.1 | 10.91 |  |  | 
42 | O=c1[nH]c(=O)n([C@@H]2O[C@H](CO)[C@@H](O)[C@H]2O)cc1COC(c1ccccc1)C1CCCCC1 (stereo partly specified) | 15.9 | 16.28 |  |  | 
43 | CC(C)(C)C(OCc1cn([C@@H]2O[C@H](CO)[C@@H](O)[C@H]2O)c(=O)[nH]c1=O)c1ccccc1Cl (stereo partly specified) | 37.2 | 20.09 |  |  | 
44 | CCC(OCc1cn([C@@H]2O[C@H](CO)[C@@H](O)[C@H]2O)c(=O)[nH]c1=O)c1ccccc1 (stereo partly specified) | 22.1 | 8.2 |  |  | 
45 | CC(OCc1cn([C@H]2O[C@H](CO)[C@@H](O)[C@H]2O)c(=O)[nH]c1=O)c1ccccc1 (stereo partly specified) | 30.6 | 25.09 |  |  | 
46 | O=c1nc(NO)ccn1[C@@H]1O[C@H](CO)[C@@H](O)[C@H]1O [N-HYDROXYCYTIDINE] |  |  | 95.5 | 2.3 | 41.5
